{
  "source": "patent US20190167811A1",
  "about": "“LIPID COMPOSITIONS AND THEIR USES FOR INTRATUMORAL POLYNUCLEOTIDE DELIVERY” (ModernaTX, Inc., priority 2016, published 2019)",
  "experiment": "Plasma and liver pharmacokinetics of LNP formulated mRNAs",
  "assay_type": "in vivo",
  "procedure": "The plasma and liver pharmacokinetics of a lipid formulation (LNP) containing Compound 18 and an mRNA encoding a protein of interest was studied. The concentrations of Compound 18 in plasma after a single IV infusion are shown FIG. 28. The concentration of Compound 18 decreased quickly within about 12 hours.\nThe concentrations of Compound 18 in liver tissues after weekly dosing were measured at day 1, day 8, and day 15.",
  "data": [
    {"compound": "CCCCCCCCCOC(=O)CCCCCCCN(CCO)CCCCCCCC(=O)OC(CCCCCCCC)CCCCCCCC", "note": "[Compound 18, Heptadecan-9-yl 8-((2-hydroxyethyl)(8-(nonyloxy)-8-oxooctyl)amino) octanoate]", "values": [
      {"measurement": "time within which the concentration of Compound 18 in plasma decreased quickly", "setting": "single IV infusion of LNP containing Compound 18 and mRNA", "result": "≤ 12", "unit": "h"},
      {"measurement": "concentration of Compound 18 in liver tissues", "setting": "weekly dosing, measured at day 1, day 8, day 15, at four hours after each weekly dosing", "result": "decreased significantly"}
    ]}
  ]
}
